Test results: US20230183193A1, “4-DIFLUOROMETHYL BENZOYL AMIDES WITH HERBICIDAL ACTION” (BAYER CROPSCIENCE AKTIENGESELLSCHAFT, priority 2017, published 2023)

Assays:
Polygonum convolvulus = assay: Pre-emergence herbicidal action, POLCO; assay type: in vivo
Excerpt: (§1) 1. Pre-Emergence Herbicidal Action Against Harmful Plants Seeds of monocotyledonous and dicotyledonous weed plants and crop plants are laid out in sandy loam soil in wood-fiber pots and covered with soil. The compounds of the invention, formulated in the form of wettable powders (WP) or as emulsion concentrates (EC), are then applied to the surface of the covering soil in the form of an aqueous suspension or emulsion at a water application rate equating to […], with addition of 0.2% wetting agent. After the treatment, the pots are placed in a greenhouse and kept under good growth conditions for the trial plants. The damage to the test plants is scored visually after a test period of 3 weeks by comparison with untreated controls (herbicidal activity in percent (%): 100% activity=the plants have died, 0% activity=like control plants).
(§2) For comparison, the herbicidal activity of numerous compounds according to the invention was tested with the structurally closest compounds known from the documents WO 2011/035874, WO 2012/028579 and WO 2012/126932, by the pre- and post-emergence method.

Viola tricolor [1] = assay: Post-emergence herbicidal action, VIOTR; assay type: in vivo; details: 80 g/ha
Outline: (§3)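 Post-emergence spray; one-leaf stage (2–3 wk after sowing), sandy loam, greenhouse. WP/EC in water, 600 to […], +0.2% wetting agent. Visual % damage vs untreated at ~3 wk; 100% = plants dead.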

Abutilon theophrasti [2] = assay: Pre-emergence herbicidal action, ABUTH; assay type: in vivo
Outline: (§4)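 Weed seeds were laid out in sandy loam and covered with soil, then the soil surface was treated with an aqueous suspension or emulsion of the formulated compound containing 0.2% wetting agent. Pots stayed in the greenhouse for 3 weeks before damage was rated visually against untreated plants.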

Amaranthus retroflexus [3] = assay: Post-emergence herbicidal action, AMARE; assay type: in vivo; details: 80 g/ha
Outline: as §3

Stellaria media [4] = assay: Post-emergence herbicidal action, STEME; assay type: in vivo; details: 80 g/ha
Outline: as §3

Amaranthus retroflexus [5] = assay: Pre-emergence herbicidal action, AMARE; assay type: in vivo
Outline: as §4

Alopecurus myosuroides [6] = assay: Pre-emergence herbicidal action, ALOMY; assay type: in vivo
Outline: as §4

Veronica persica [7] = assay: Post-emergence herbicidal action, VERPE; assay type: in vivo; details: 80 g/ha, comparison with WO 2011035874, Table E
Procedure: (§5) Seeds of monocotyledonous and dicotyledonous weed and crop plants are laid out in sandy loam soil in wood-fiber pots, covered with soil and cultivated in a greenhouse under good growth conditions. 2 to 3 weeks after sowing, the test plants are treated at the one-leaf stage. The compounds of the invention, formulated in the form of wettable powders (WP) or as emulsion concentrates (EC), are then sprayed onto the green parts of the plants in the form of an aqueous suspension or emulsion at a water application rate equating to […], with addition of 0.2% wetting agent. After the test plants have been left to stand in the greenhouse under optimal growth conditions for about 3 weeks, the action of the preparations is assessed visually in comparison to untreated controls (herbicidal action in percent (%): 100% activity=the plants have died, 0% activity=like control plants). […] At the same time, inventive compounds leave Gramineae crops such as barley, wheat, rye, millet/sorghum, corn or rice virtually undamaged when applied post-emergence, even at high active compound dosages. In addition, some substances are also harmless to dicotyledonous crops such as soya, cotton, oilseed rape, sugar beet or potatoes. Some of the compounds according to the invention have high selectivity and are therefore suitable for controlling unwanted vegetation in agricultural crops by the post-emergence method. The data of Tables C and D below illustrate, in an exemplary manner, the […] herbicidal action of the compounds according to the invention, the herbicidal activity being stated in percent.
as §2

Avena fatua [8] = assay: Pre-emergence herbicidal action, AVEFA; assay type: in vivo
Outline: as §4

Viola tricolor [9] = assay: Pre-emergence herbicidal action, VIOTR; assay type: in vivo
Outline: as §4

Veronica persica [10] = assay: Pre-emergence herbicidal action, VERPE; assay type: in vivo; details: 80 g/ha, comparison with WO 2011035874, Table H
Excerpt: as §1, §2

Abutilon theophrasti [11] = assay: Post-emergence herbicidal action, ABUTH; assay type: in vivo; details: 80 g/ha
Outline: as §3

Cyperus serotinus = assay: Pre-emergence herbicidal action, CYPES; assay type: in vivo
Outline: as §4

Pharbitis purpureum = assay: Post-emergence herbicidal action, PHBPU; assay type: in vivo; details: 80 g/ha
Outline: as §3

Stellaria media [12] = assay: Pre-emergence herbicidal action, STEME; assay type: in vivo
Outline: as §4

Setaria viridis [13] = assay: Pre-emergence herbicidal action, SETVI; assay type: in vivo
Outline: as §4

ECHCG [14] = assay: Pre-emergence herbicidal action, ECHCG; assay type: in vivo; details: 80 g/ha, comparison with WO 2011035874, Table G
Excerpt: as §1

Matricaria inodora [15] = assay: Post-emergence herbicidal action, MATIN; assay type: in vivo; details: 80 g/ha, comparison with WO 2011035874, Table E
Procedure: as §5, §2

Matricaria inodora [16] = assay: Pre-emergence herbicidal action, MATIN; assay type: in vivo; details: for Herbicidal efficacy against MATIN: Table K
Outline: as §4

Alopecurus myosuroides [17] = assay: Post-emergence herbicidal action, ALOMY; assay type: in vivo; details: 80 g/ha, Table C
Outline: as §3

Setaria viridis [18] = assay: Post-emergence herbicidal action, SETVI; assay type: in vivo; details: 80 g/ha, Table C
Outline: as §3

ECHCG [19] = assay: Pre-emergence herbicidal action, ECHCG; assay type: in vivo, Echinochloa crus-galli
Avena fatua [20] = assay: Post-emergence herbicidal action, AVEFA; assay type: in vivo; details: 80 g/ha, Table C
Outline: as §3

ECHCG [21] = assay: Post-emergence herbicidal action, ECHCG; assay type: in vivo; details: 80 g/ha, Table C
Outline: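 Weed and crop plants grown in sandy loam in the greenhouse, treated at the one-leaf stage 2–3 weeks after sowing. Damage scored visually after about 3 weeks vs untreated controls (0% = control, 100% = dead).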

[22] = 80 g/ha, comparison with WO 2011035874, Table H
[23] = comparison with WO 2011035874, Table E
[24] = 80 g/ha, comparison with WO 2011035874, Table G
[25] = dosage 320 g/ha, scored visually after 3 weeks vs untreated controls

`Cn1nnnc1NC(=O)c1ccc(C(F)F)c(S(=O)(=O)CC2CC2)c1I` [Example 1-81] was tested, and the “Herbicidal efficacy against POLCO” value (Polygonum convolvulus; [22]) was 10%, the “Herbicidal efficacy against VIOTR” value (Viola tricolor [1]; [23]) was 0% and the “Herbicidal efficacy against ABUTH” value (Abutilon theophrasti [2]; [24]) was 20%. For the same compound, the “Herbicidal efficacy against AMARE” value (Amaranthus retroflexus [3]; [23]) was 60%, the “Herbicidal efficacy against STEME” value (Stellaria media [4]; [23]) was 0% and the “Herbicidal efficacy against AMARE” value (Amaranthus retroflexus [5]; [22]) was 60%. The “Herbicidal efficacy against ALOMY” value (Alopecurus myosuroides [6]; [24]) was 0%, the “Herbicidal efficacy against VERPE” value (Veronica persica [7]) was 30% and the “Herbicidal efficacy against AVEFA” value (Avena fatua [8]; [24]) was 40%. The “Herbicidal efficacy against VIOTR” value (Viola tricolor [9]; [22]) was 90%, the “Herbicidal efficacy against VERPE” value (Veronica persica [10]) was 70% and the “Herbicidal efficacy against ABUTH” value (Abutilon theophrasti [11]; [23]) was 30%. For the same compound, the “Herbicidal efficacy against CYPES” value (Cyperus serotinus; [24]) was 0%, the “Herbicidal efficacy against PHBPU” value (Pharbitis purpureum; [23]) was 10% and the “Herbicidal efficacy against STEME” value (Stellaria media [12]; [22]) was 50%. For the same compound, the “Herbicidal efficacy against SETVI” value (Setaria viridis [13]; [24]) was 10%, the “Herbicidal efficacy against ECHCG” value (ECHCG [14]) was 10% and the “Herbicidal efficacy against MATIN” value (Matricaria inodora [15]) was 10%.

With `Cn1nnnc1NC(=O)c1ccc(C(F)F)c([S+](C)[O-])c1Cl` (stereo not shown) [Example 1-50] the “Herbicidal efficacy against POLCO” value (Polygonum convolvulus; dosage 80 g/ha, Table K) was 80, the “Herbicidal efficacy against POLCO” value (Polygonum convolvulus; dosage 320 g/ha, Table K) was 90 and the “herbicidal activity VIOTR” value (Viola tricolor [1]; Table D) was 100%. For the same compound, the “Herbicidal efficacy against ABUTH” value (Abutilon theophrasti [2]; dosage 20 g/ha, Table K) was 100, the “Herbicidal efficacy against ABUTH” value (Abutilon theophrasti [2]; dosage 80 g/ha, Table K) was 100 and the “Herbicidal efficacy against ABUTH” value (Abutilon theophrasti [2]; dosage 320 g/ha, Table K) was 100. The “herbicidal activity ABUTH” value (Abutilon theophrasti [2]; [25]) was 100%, the “Herbicidal efficacy against MATIN” value (Matricaria inodora [16]; dosage 20 g/ha) was 90 and the “Herbicidal efficacy against MATIN” value (Matricaria inodora [16]; dosage 80 g/ha) was 100. For the same compound, the “Herbicidal efficacy against MATIN” value (Matricaria inodora [16]; dosage 320 g/ha) was 100, the “herbicidal activity MATIN” value (Matricaria inodora [16]; [25]) was 100% and the “herbicidal activity ALOMY” value (Alopecurus myosuroides [17]) was 100%. For the same compound, the “herbicidal activity AMARE” value (Amaranthus retroflexus [3]; Table D) was 100%, the “Herbicidal activity STEME” value (Stellaria media [4]; Table D) was 100% and the “herbicidal activity AMARE” value (Amaranthus retroflexus [5]; [25]) was 100%. The “Herbicidal efficacy against ALOMY” value (Alopecurus myosuroides [6]; 20 g/ha) was 90, the “Herbicidal efficacy against ALOMY” value (Alopecurus myosuroides [6]; 80 g/ha) was 100 and the “Herbicidal efficacy against ALOMY” value (Alopecurus myosuroides [6]; 320 g/ha) was 100. For the same compound, the “herbicidal activity ALOMY” value (Alopecurus myosuroides [6]; [25]) was 100%, the “Herbicidal efficacy against AVEFA” value (Avena fatua [8]; 80 g/ha) was 90 and the “Herbicidal efficacy against AVEFA” value (Avena fatua [8]; 320 g/ha) was 100. The “herbicidal activity AVEFA” value (Avena fatua [8]; [25]) was 100%, the “herbicidal activity SETVI” value (Setaria viridis [18]) was 100% and the “Herbicidal efficacy against VIOTR” value (Viola tricolor [9]; dosage 20 g/ha, Table K) was 100. For the same compound, the “Herbicidal efficacy against VIOTR” value (Viola tricolor [9]; dosage 80 g/ha, Table K) was 100, the “Herbicidal efficacy against VIOTR” value (Viola tricolor [9]; dosage 320 g/ha, Table K) was 100 and the “herbicidal activity VIOTR” value (Viola tricolor [9]; [25]) was 100%. For the same compound, the “herbicidal activity ABUTH” value (Abutilon theophrasti [11]; Table D) was 100%, the “Herbicidal efficacy against ECHCG” value (ECHCG [19]; 20 g/ha) was 90 and the “Herbicidal efficacy against ECHCG” value (ECHCG [19]; 80 g/ha) was 100. The “Herbicidal efficacy against ECHCG” value (ECHCG [19]; 320 g/ha) was 100, the “Herbicidal efficacy against CYPES” value (Cyperus serotinus; 20 g/ha) was 70 and the “Herbicidal efficacy against CYPES” value (Cyperus serotinus; 80 g/ha) was 100. The “Herbicidal efficacy against CYPES” value (Cyperus serotinus; 320 g/ha) was 100, the “herbicidal activity CYPES” value (Cyperus serotinus; [25]) was 100% and the “herbicidal activity AVEFA” value (Avena fatua [20]) was 100%. The “Herbicidal activity PHBPU” value (Pharbitis purpureum; Table D) was 100%, the “Herbicidal activity STEME” value (Stellaria media [12]; [25]) was 90% and the “Herbicidal efficacy against SETVI” value (Setaria viridis [13]; 20 g/ha) was 100. The “Herbicidal efficacy against SETVI” value (Setaria viridis [13]; 80 g/ha) was 100, the “Herbicidal efficacy against SETVI” value (Setaria viridis [13]; 320 g/ha) was 100 and the “herbicidal activity SETVI” value (Setaria viridis [13]; [25]) was 100%. The “Herbicidal activity ECHCG” value (ECHCG [21]) was 100%.
